Reference: BindingDB's records for doi:10.7270/Q2CN728N (Nmmlsc, 2008)
Counter-ions that a name gives are not always drawn.

Target: T1, Bcl-2-related protein A1 (Homo sapiens, UniProt Q16548)
T1 sequence (Q16548 whole entry): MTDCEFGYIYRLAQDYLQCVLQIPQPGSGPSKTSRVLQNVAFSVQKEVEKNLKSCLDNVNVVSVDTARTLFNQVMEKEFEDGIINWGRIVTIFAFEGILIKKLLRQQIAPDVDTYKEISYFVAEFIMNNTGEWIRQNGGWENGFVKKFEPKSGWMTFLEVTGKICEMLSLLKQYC
Assay: Bfl-1/Bim complex disruptors – biochemical, multiplexed, bead-based flow cytometry, dose response (AID 1320)
Conditions: inactive by the depositor's call; pH 7.4; 4 °C

| Structure (SMILES) | EC50 [µM] |
| --- | --- |
| Cc1nc2ncccn2c1-c1csc(Nc2ccccc2)n1 [4-(2-methyl-3-imidazo[1,2-a]pyrimidinyl)-N-phenyl-2-thiazolamine] | 11.7 |
| CNc1ccc(Br)cc(C(=O)/C=C/c2cccc(OC)c2)c1=O [4-bromo-2-[3-(3-methoxyphenyl)acryloyl]-7-(methylamino)-2,4,6-cycloheptatrien-1-one] | 17.5 |
| Cc1cc(C)nc(SCc2cc(=O)c(OC(=O)c3ccc(Cl)c([N+](=O)[O-])c3)co2)n1 [4-chloro-3-nitrobenzoic acid [6-[[(4,6-dimethyl-2-pyrimidinyl)thio]methyl]-4-oxo-3-pyranyl] ester] | 19.7 |
| COc1cc(/N=c2/ssnc2Cl)cc(OC)c1 [4-chloro-N-(3,5-dimethoxyphenyl)-5-dithiazolimine] | 15 |
| CCOC(=O)c1sc(N)c(C(=O)Nc2ccccc2OC)c1C [5-amino-4-[(2-methoxyanilino)-oxomethyl]-3-methyl-2-thiophenecarboxylic acid ethyl ester] | 5.66 |
| O=C(N[N-][CH+]c1ccc(-c2ccccc2[N+](=O)[O-])o1)c1cncc(Br)c1 [5-bromo-N-[[5-(2-nitrophenyl)furan-2-yl]methylideneamino]pyridine-3-carboxamide] | 33.6 |
| O=C1C(=Cc2ccco2)NC(=S)N1c1ccccc1 [(5E)-5-(furan-2-ylmethylidene)-3-phenyl-2-sulfanylideneimidazolidin-4-one] | 14.8 |
| CC(C)CN1C(=O)/C(=C/c2ccco2)NC1=S [(5Z)-5-(2-furanylmethylidene)-3-(2-methylpropyl)-2-sulfanylidene-4-imidazolidinone] | 11 |
| Cc1ccc(-c2ccc(/C=C3\SC(N4CCOCC4)=NC3=O)o2)cc1 [(5Z)-5-[[5-(4-methylphenyl)-2-furanyl]methylidene]-2-(4-morpholinyl)-4-thiazolone] | 20 |
| COc1cc(C2Nc3cccc4cccc(c34)N2)ccc1OC(C)=O [Acetic acid 4-(2,3-dihydro-1H-perimidin-2-yl)-2-methoxy-phenyl ester] | 11.1 |
| COC(=O)CSc1ncnc2c1sc1nc(-c3ccco3)c3c(c12)CC(C)(C)OC3 [MLS000039339] | 12.4 |
| C/C(=C\c1ccco1)C1Nc2cccc3cccc(c23)N1 [MLS000055728] | 15.8 |
| CCOc1cc(C2Nc3cccc4cccc(c34)N2)ccc1O [MLS000068595] | 37.5 |
| COc1ccc(-n2c(NC(=O)c3ccco3)c(C#N)c3nc4ccccc4nc32)cc1 [MLS000079925] | 16.1 |
| Cc1cc2n(c1)CCn1c(C)ccc1-2 [MLS000104384] | 12.6 |
| Cc1ccc(C)n1-c1ccc(N2CCOCC2)cc1 [MLS000111760] | 11.4 |
| Clc1nc(NCc2cccnc2)nc(N2CCOCC2)n1 [MLS000121154] | 30.8 |

| Structure (SMILES) | EC50 [µM] |
| --- | --- |
| CCOC(=O)C(=Cc1cccc(O)c1)c1nc2sc(C)c(C)c2c(=O)[nH]1 [MLS000393989] | 9.56 |
| S=c1[nH]cc(-c2ccccc2)n1-c1ccccc1Cl [MLS000417182] | 2.23 |
| CCCCNc1[nH]c(=S)nc2cc(OC)c(OC)cc12 [MLS000520261] | 17.3 |
| COc1ccc(C2=Nc3cccc4cccc(c34)N2)cc1 [MLS000551954] | 6.49 |
| CCOc1cccc(CNc2ccc(O)cc2)c1OCc1ccccc1Cl [MLS000580486] | 1.61 |
| CCCC(=O)OCCNc1cc(Sc2nccn2C)c2nonc2c1[N+](=O)[O-] [MLS000584441] | 18.1 |
| Cc1ccc(/C=C2/NC(=O)N(Cc3ccccc3)C2=O)o1 [MLS000698643] | 2.73 |
| COc1ccc(/C=C/C(=O)c2cc(Br)ccc(=O)c2O)cc1 [MLS000702099] | 14 |
| COc1cccc2c1C(=O)C=C(C)C2=O [MLS000702735] | 28.3 |
| COC(=O)CCC(=O)Nc1sc(Cc2ccccc2)c(C)c1C(N)=O [MLS000708819] | 0.97 |
| CCOC(=O)c1cc2c(=O)n3ccccc3nc2n(Cc2ccco2)/c1=N/C(=O)c1ccccc1OC [MLS000729830] | 34.5 |
| Cc1ccc(/C=C/C(=O)c2ccccc(=O)c2O)cc1C [MLS000756172] | 14.9 |
| CC(=O)Nc1ccc(-n2cc(-c3ccccc3)[nH]c2=S)cc1 [MLS001001946] | 0.47 |
| CCc1cccc(CC)c1-n1c(-c2cccnc2)n[nH]c1=S [MLS001006773] | 1.09 |
| COc1ccccc1-n1c(-c2ccccc2)c[nH]c1=S [MLS001007615] | 0.61 |
| O=C(Cn1c2ccccc2c(=O)c2ccccc21)N/N=C/c1ccc(N2CCCC2)c([N+](=O)[O-])c1 [N'-[(1E)-(3-nitro-4-pyrrolidin-1-ylphenyl)methylene]-2-(9-oxoacridin-10(9H)-yl)acetohydrazide] | 41.1 |
| O=C(Nc1ccc(N2CCOCC2)cc1)Nc1ccc2nc(-c3ccco3)c(-c3ccco3)nc2c1 [N-(2,3-di-2-furyl-6-quinoxalinyl)-N'-[4-(4-morpholinyl)phenyl]urea] | 19.5 |

Same assay, conditions: pH 7.4; 4 °C

| Structure (SMILES) | EC50 [µM] |
| --- | --- |
| C=CS(=O)(=O)c1sc(Cl)c(N2CCOCC2)c1[N+](=O)[O-] [4-(2-chloranyl-5-ethenylsulfonyl-4-nitro-thiophen-3-yl)morpholine] | 5.46 |
| Cc1ccc(-c2c3c([nH]c(=S)c2C#N)CCCC3)o1 [4-(5-methylfuran-2-yl)-2-sulfanylidene-5,6,7,8-tetrahydro-1H-quinoline-3-carbonitrile] | 8.21 |
| CCN(CC)c1ccc(Nc2nc(N3CCOCC3)c3ccccc3n2)cc1 [4-N,4-N-diethyl-1-N-(4-morpholin-4-ylquinazolin-2-yl)benzene-1,4-diamine] | 9 |
| CCOc1cccc(CNc2ccc(O)cc2)c1OCc1ccc(Cl)cc1 [4-[[2-[(4-chlorophenyl)methoxy]-3-ethoxyphenyl]methylamino]phenol] | 2.8 |
| CNc1ccc(Br)cc(C(=O)/C=C/c2cccc(OC)c2OC)c1=O [4-bromanyl-2-[(E)-3-(2,3-dimethoxyphenyl)prop-2-enoyl]-7-(methylamino)cyclohepta-2,4,6-trien-1-one] | 8.38 |
| CN(C)c1ccc(C=C2C(=O)NC(=O)NC2=O)cc1[N+](=O)[O-] [5-[[4-(dimethylamino)-3-nitrophenyl]methylidene]-1,3-diazinane-2,4,6-trione] | 4.67 |
| Cc1ccc(-c2nc3c(c(=O)[nH]c(=O)n3Cc3ccccc3)n2C)o1 [7-methyl-8-(5-methyl-2-furanyl)-3-(phenylmethyl)purine-2,6-dione] | 1.94 |
| COc1cc(/C=C2\CC/C(=C\c3cc(OC)c(O)c(OC)c3)C2=O)cc(OC)c1O [(2E,5E)-2,5-bis[(4-hydroxy-3,5-dimethoxyphenyl)methylidene]cyclopentan-1-one] | 3.9 |
| O=C1/C(=C\c2ccc(-c3ccccc3Cl)o2)SC(=S)N1CC1CCCO1 (configuration not stated) [(5E)-5-[[5-(2-chlorophenyl)furan-2-yl]methylidene]-3-(oxolan-2-ylmethyl)-2-sulfanylidene-1,3-thiazolidin-4-one] | 2.6 |
| Fc1ccc(C=C2CCCC3C2=NC(=S)NC3c2ccc(F)cc2)cc1 (configuration not stated) [(8E)-4-(4-fluorophenyl)-8-[(4-fluorophenyl)methylidene]-1,3,4,5,6,7-hexahydroquinazoline-2-thione] | 6.65 |
| CN1CCc2cccc3c2[C@H]1Cc1ccc(O)c(O)c1-3 [APOMORPHINE HYDROCHLORIDE] | 46.4 |
| Cc1ccc(-c2cc(-c3ccc(F)cc3)nc(N)c2C#N)o1 [MLS000082831] | 2.44 |
| CCOC(=O)C1CCN(C(=O)Nc2ccc3nc(-c4ccco4)c(-c4ccco4)nc3c2)CC1 [MLS000113285] | 1.18 |
| Clc1ccc2c(N=NCc3ccccc3Br)ccnc2c1 [MLS000336087] | 12.2 |
| O=[N+]([O-])c1ccc(N=NCc2ccc(O)c(O)c2O)c(S(=O)(=O)N2CCOCC2)c1 [MLS000336720] | 4.48 |
| O=[N+]([O-])c1ccc(N2CCN(c3ccc(O)cc3)CC2)c(Cl)c1 [MLS000374649] | 1.77 |
| Cc1ccc(NC2=C(NC(=O)c3ccccc3)C(=O)c3ccccc3C2=O)cc1Cl [MLS000392290] | 2.31 |

| Structure (SMILES) | EC50 [µM] |
| --- | --- |
| O=[N+]([O-])c1c(NCCO)cc(Sc2nc3ccccc3s2)c2nonc12 [MLS000520993] | 0.12 |
| O=[N+]([O-])c1c(NCCCO)cc(Sc2nc3ccccc3s2)c2nonc12 [MLS000520994] | 0.61 |
| CN(CCO)c1cc(Sc2nc3ccccc3s2)c2nonc2c1[N+](=O)[O-] [MLS000520995] | 1.48 |
| CC(=O)OCCCNc1cc(Sc2nc3ccccc3s2)c2nonc2c1[N+](=O)[O-] [MLS000521052] | 0.08 |
| O=C1C=CC(C=NNC(=O)C(=Cc2ccc([N+](=O)[O-])cc2)NC(=O)c2ccccc2)C(O)=C1O (configuration not stated) [MLS000530401] | 5.22 |
| COc1ccc2c3c(cccc13)N(C)N=C2C [MLS000554700] | 0.61 |
| Cc1ccc(/C=C/C(=O)Nc2ccc([N+](=O)[O-])c(NC(=O)/C=C/c3ccc(C)o3)c2)o1 [MLS000578867] | 0.83 |
| Cc1ccc(-c2cc(C(=O)Nc3nccs3)c3ccccc3n2)o1 [MLS000579660] | 9.21 |
| Cc1nnc(Sc2cc(NCCCO)c([N+](=O)[O-])c3nonc23)s1 [MLS000674027] | 0.13 |
| Fc1ccc(C2=Nc3cccc4cccc(c34)N2)cc1 [MLS000687139] | 7.63 |
| CCN(C(=O)COC(=O)c1cc(-c2ccc(C)o2)nc2ccccc12)C1CCS(=O)(=O)C1 (configuration not stated) [MLS001003409] | 3.38 |
| CC1=CC(=O)c2c(O)ccc(O)c2C1=O [MLS001048870] | 2.87 |
| c1ccc(Nc2cccc(Nc3ccccc3)n2)cc1 [N,N'-diphenyl-2,6-pyridinediamine] | 1.17 |
| CC(=O)c1ccc(NC(=O)c2ccc3nc(-c4ccco4)c(-c4ccco4)nc3c2)cc1 [N-(4-acetylphenyl)-2,3-di-2-furyl-6-quinoxalinecarboxamide] | 2.34 |
| Clc1nss/c1=N\c1ccc(Br)cc1 [N-(4-bromophenyl)-4-chloro-5-dithiazolimine] | 9.18 |
| COc1ccc(CCNC(=O)c2ccc3nc(-c4ccco4)c(-c4ccco4)nc3c2)cc1OC [N-[2-(3,4-dimethoxyphenyl)ethyl]-2,3-di-2-furylquinoxaline-6-carboxamide] | 4.3 |
